# Measurements taken from patent US9416163B2, “Synthetic oligopeptides designed from mite cysteine proteases and methods for the production of polyclonal IgY antibodies for the detection of intradomiciliary mites” (priority 2009, dated 2016).
# Test system: Hi Line Brown chickens
# Assay: Immunogenicity of synthetic peptide in immunized chickens (IgY production)
# Assay type: in vivo, chicken
# Conditions: chickens immunized intramuscularly with peptide in Freund's adjuvant; IgY from egg yolk
# From the text: An experimental avian model was used in the experiments, represented by Hi Line Brown chickens, immunized with peptide 2, using complete Freund's adjuvant during the first immunization and incomplete Freund's adjuvant for the three subsequent immunizations, as described in the immunization protocol used. As a positive control, chickens were immunized with BSA, and as a negative control they were not immunized. Antibodies were extracted from egg yolk using an organic solvent and purified by thiophilic chromatography. Indirect ELISA tests were developed to measure the antibody titer and its specificity was determined by indirect ELISA. (25-26)
# Experiments used an avian experimental model, represented by Hi Line Brown chickens, immunized with peptide 2, using complete Freund's adjuvant for the first immunization and incomplete Freund's adjuvant for the three subsequent immunizations described in the immunization protocol used. As a positive control, chickens were immunized with BSA, and as a negative control they were not immunized. Antibodies were extracted from egg yolk using an organic solvent and purified by thiophilic chromatography. Indirect ELISA tests were developed to measure the antibody titer and its specificity was determined by indirect ELISA. (25-26)
# (§1) Experiments used an avian experimental model, represented by Hi Line Brown chickens, immunized with peptide 4, using complete Freund's adjuvant for the first immunization and incomplete Freund's adjuvant for the three subsequent immunizations described in the immunization protocol used. […] Indirect ELISA tests were developed to measure the antibody titer and its specificity was determined by indirect ELISA. […]
# as §1, with “5,” for “4,”, “ELISA (FIG. 14)” for “ELISA.”
row,Sequence,Immunogenicity: induction of IgY antibodies recognizing native mite proteins
1,IPANFDWRQKTHVNPIRNQG [Peptide P05],induces the production of IgY-anti P05 antibody that recognizes epitopes B and/or T in native proteins of intradomiciliary Dp and Bt mites
2,PIRMQGGCGSCWAFSGV [Peptide P02],"induces the production of IgY anti P06 antibodies that recognize B and/or T epitopes in native proteins of intradomiciliary Df, Dp and Bt mite species"
3,TNACSINGNAPAEIDLRQMR [Peptide P01],induces the production of IgY anti P04 antibodies that recognize B and/or T epitopes in native proteins of intradomiciliary Df and Bt mite species
